Consider 80 compounds from PubChem BioAssay AID1645867 (Buhrlage Lab, Dana-Farber Cancer Institute and Novartis …, 2021).

Broadly, the IC50 is the concentration needed to halve the response being measured.

Active and inactive are the calls of the source. The rule behind the calls is not given here.

In this assay the target is Ubiquitin carboxyl-terminal hydrolase isozyme L1 (Homo sapiens) (UniProt P09936). In words: UCH-L1 deubiquitylase inhibitors, biochemical concentration-response, hit retest (AID 1645867). The conditions noted are these: recombinant UCHL1 deubiquitinase activity assay.
Chain of Ubiquitin carboxyl-terminal hydrolase isozyme L1 (Homo sapiens) (P09936 whole entry, looked up): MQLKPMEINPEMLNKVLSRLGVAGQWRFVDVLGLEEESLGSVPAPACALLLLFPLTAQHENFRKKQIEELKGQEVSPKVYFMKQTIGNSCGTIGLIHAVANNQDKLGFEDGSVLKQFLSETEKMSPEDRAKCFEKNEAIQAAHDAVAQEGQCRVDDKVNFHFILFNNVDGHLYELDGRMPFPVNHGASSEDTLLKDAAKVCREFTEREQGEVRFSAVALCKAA
In the case of `O=S1(=O)CCN(CC2CCCO2)c2c(Oc3ccccc3)nc(F)c(Cl)c21` (stereo not given), the IC50 is > 25 µM (inactive).
In the case of `COc1cn(-c2ccc(F)cc2)nc1C(=O)Nc1ccc(Cl)cc1Cl` it was 23.2 µM; in that of `Nc1ccc(F)c(NS(=O)(=O)c2ccccc2)c1`, > 25 µM (inactive); in that of `Cc1ccc(CNC(=O)Cn2c(=O)n(CCCC(=O)NCc3ccc(F)cc3)c(=O)c3ccccc32)cc1`, > 25 µM (inactive).
Turning to `COc1ccc(-c2cc3nc([C@H](C)NC(=O)Cc4cc(F)ccc4F)nn3cn2)cc1`, the IC50 was > 25 µM (inactive).
In the case of `CCOc1ccc(CC(=O)Nc2ccc(-c3cn4cccnc4n3)cc2)cc1` it was > 25 µM (inactive); in that of `O=c1c(S(=O)(=O)c2cc(F)cc(F)c2)c[nH]c2cc(Cl)ccc12`, > 25 µM (inactive); in that of `Cc1ccc(-n2c(=O)[nH]c3c(C(N)=O)nc(-c4ccc(OCc5ccccc5)cc4)nc32)cc1`, > 25 µM (inactive).
Take `CCc1ccccc1NC(=O)Cn1c(SCc2ccc(F)cc2)nc2cccnc21`: the IC50 was > 25 µM (inactive).
In the case of `CCOc1ccc(-n2ccnc(SCC(=O)Nc3ccccc3Cl)c2=O)cc1` it was > 25 µM (inactive); in that of `O=C(NCc1ccc(Br)cc1)c1cc(-c2cccnc2)n[nH]1`, > 25 µM (inactive).
Consider `COc1ccc(NC(=O)[C@H](C)NC(=O)c2cc3c(OC)cccc3[nH]2)cc1Cl`, for which the IC50 was > 25 µM (inactive).
In the case of `CC(Oc1ccc(F)cc1)c1nnc(C2(c3ccc(F)cc3)CCOCC2)o1` (stereo not given) it was > 25 µM (inactive).
As to `Cc1ccc(Cn2nc(C)c(C(=O)N3CCCc4cc(C)ccc43)c2C)cc1`, the IC50 was > 25 µM (inactive).
As to `O=c1[nH]c(=O)n(Cc2ccccc2)c2c1CN(CCc1ccccc1)CN2`, the IC50 was > 25 µM (inactive).
In the case of `Cc1sc(N)nc1-c1ccc(C(C)(C)C)cc1` it was > 25 µM (inactive); in that of `CCC1OC(O)(C(C)C(O)C(C)C2OC(=O)/C(C)=C/C(C)=CC(C)C(O)C(C)C/C(C)=C/C=C/C2OC)CC(OC(=O)/C=C/C(=O)NC2=C(O)CCC2=O)C1C` (stereo not given), > 25 µM (inactive).
For the compound `Cc1ccc(NC(=O)c2cc(-c3ccccn3)nc3c(Cl)cccc23)nc1`, the IC50 is > 25 µM (inactive).
In the case of `CCOc1ccc2c(c1)c(=O)c(C(=O)c1ccccc1)cn2CC(=O)Nc1ccc(Cl)cc1` it was > 25 µM (inactive); in that of `O=c1ccc(-c2cc3ccccc3o2)cn1Cc1ccccc1-c1ccccc1`, 12.7 µM; in that of `CNc1nc2c(c(=O)n1C)CN(C(=O)Nc1cccc3ccccc13)CC2`, > 25 µM (inactive).
In the case of `O=C(Cn1c(=O)n(Cc2ccccc2)c(=O)c2ncccc21)NCc1ccccc1Cl` it was > 25 µM (inactive).
In the case of `O=C(O)c1ccc(Cl)c(NC(=O)C2COc3ccccc3O2)c1` (stereo not given) it was > 25 µM (inactive).
`Cc1ccc(S(=O)(=O)NCc2ccc(C(=O)NCCc3ccc(S(N)(=O)=O)cc3)cc2)cc1`: the IC50 was > 25 µM (inactive).
In the case of `O=C(Cc1c[nH]c2ccccc12)N1CCc2cc(-c3ccno3)ccc21` it was > 25 µM (inactive); in that of `O=C(Nc1cccc(-c2nc3cnccc3o2)c1)c1ccc(Br)o1`, > 25 µM (inactive); in that of `O=C(CSc1ccc2nnc(-c3cccc(F)c3)n2n1)N1CCCc2ccccc21`, > 25 µM (inactive).
In the case of `Cn1nc(Cl)c(Cl)c1Oc1ccc(S(=O)(=O)Nc2ccc(Oc3ccc(C(F)(F)F)cn3)c(Cl)c2)cc1` it was > 25 µM (inactive); in that of `Cc1nn(-c2ccc(Cl)cc2)c2[nH]c(=O)c(CNc3ccc4c(c3)OCCO4)cc12`, > 25 µM (inactive).
For `Nc1c(-c2nc(-c3ccccc3Cl)no2)nnn1-c1ccc(Cl)cc1`, the IC50 was > 25 µM (inactive).
In the case of `Cn1c(=O)c2c3c(cnc2n(C)c1=O)C(=O)CC(c1ccccc1)C3` (stereo not given) it was > 25 µM (inactive); in that of `CCOc1ccc(NC(=O)Cn2c(=O)n(CCCCCC(=O)NCc3ccc(F)cc3)c(=O)c3sccc32)cc1`, > 25 µM (inactive); in that of `CCC(Sc1cccc(NC(=O)C2CCCCC2)c1)C(=O)Nc1cc([N+](=O)[O-])ccc1C` (stereo not given), > 25 µM (inactive).
In the case of `CC(C)c1ccc(C2CC(=O)c3cn[nH]c3C2)cc1` (stereo not given) it was > 25 µM (inactive); in that of `O=C(CN1CC(=O)c2ccccc2S1(=O)=O)Nc1ccccc1`, > 25 µM (inactive); in that of `N#C/C(=C\c1ccc(OCc2cccc(C(=O)O)c2)cc1)c1ccc(F)cc1`, > 25 µM (inactive).
In the case of `Cc1ccc(C(=O)N[C@@H](Cc2ccccc2)C(=O)N2CCC3(CC2)NCCc2[nH]cnc23)cc1C` it was > 25 µM (inactive); in that of `CCCn1c(=O)c(-c2ccc(C(=O)NCc3ccc(OC)cc3)cc2)nc2cccnc21`, > 25 µM (inactive).
For the compound `CCOc1ccc2c(c1)c(=O)c(C(=O)c1ccccc1)cn2CC(=O)Nc1ccc(OC)cc1`, the IC50 is > 25 µM (inactive).
As for `O=C(CSc1cn(Cc2ccccc2Cl)c2ccccc12)N1CCOCC1`, the IC50 was > 25 µM (inactive).
On to `CN(C)CCN1C(=O)c2cc3occc3n2CC1(C)C(=O)NC1CCCCCC1` (stereo not given), for which the IC50 is > 25 µM (inactive).
As to `O=C(CCc1nc2sc3c(c2c(=O)[nH]1)CCCCC3)Nc1ccc(F)cc1F`, the IC50 is > 25 µM (inactive).
In the case of `O=C(C1CCCC1)N1CCC(c2nc3c(nnn3Cc3ccccc3Cl)c(=O)[nH]2)CC1` it was > 25 µM (inactive).
In the case of `C(=C\c1nc(-c2cccc(-c3ccn[nH]3)c2)no1)/c1ccco1` it was > 25 µM (inactive).
In the case of `CN(C)[C@@H]1C(=O)C(C(N)=O)=C(O)[C@@]2(O)C(=O)C3=C(O)c4c(O)cccc4[C@@](C)(O)[C@H]3C[C@@H]12` it was > 25 µM (inactive); in that of `CC(C)(C)n1ncc2c(=O)n(CC(=O)N3CCCc4ccccc43)cnc21`, > 25 µM (inactive).
For `Oc1cccc2c(-c3ccc(O)c4c(O)cccc34)ccc(O)c12`, the IC50 is 10.7 µM.
`COc1ccc(C)cc1NC(=O)COc1ncnc2ccccc12`: the IC50 is > 25 µM (inactive).
In the case of `Cc1cc(C)c(NC(=O)Cn2c(=O)n(CCC(=O)NCc3ccc4c(c3)OCO4)c(=O)c3sccc32)c(C)c1` it was > 25 µM (inactive); in that of `Cc1cccc(CCN2C(=O)CCc3c(C)nc(C4CCCNC4)nc32)c1` (stereo not given), > 25 µM (inactive); in that of `O=C(Nc1cccc(Br)c1)c1cc(-c2cccnc2)n[nH]1`, > 25 µM (inactive).
In the case of `Cc1oc2cc3oc(=O)c(CCC(=O)N4CC[C@@]5(O)CCCC[C@H]5C4)c(C)c3cc2c1C` it was > 25 µM (inactive); in that of `Cc1cc(NC(=O)c2cc(-c3cccnc3)n[nH]2)ccc1Br`, > 25 µM (inactive); in that of `Cc1ccc(NC(=O)Nc2ccc(C)n(CC(=O)Nc3ccc(C)cc3C)c2=O)cc1`, > 25 µM (inactive).
On to `COc1cccc(-n2cnc3cc(C(=O)NCCc4ccccc4)ccc3c2=O)c1`, for which the IC50 was > 25 µM (inactive).
As to `CCOc1ccc2c(c1)c(=O)c(C(=O)c1ccc(C)cc1)cn2CC(=O)Nc1ccc(C)cc1`, the IC50 was > 25 µM (inactive).
In the case of `O=C(Nc1ccc(Cl)c(Cl)c1)c1cccc(N2CCCCS2(=O)=O)c1` it was > 25 µM (inactive); in that of `C/C=C/C=C/[C@@H]1Cc2cc(O)cc(O)c2O1`, 10.9 µM.
In the case of `COc1cc(NC(=O)c2ccc3c(c2)OCO3)ccc1-c1cc2ccccc2oc1=O` it was > 25 µM (inactive).
In the case of `Cc1nc(C2COCCN2C(=O)c2cc(C(C)(C)C)[nH]n2)cc(=O)[nH]1` (stereo not given) it was > 25 µM (inactive).
For the compound `c1ccc(-c2ccc(NCc3ccc4c(c3)OCO4)nn2)cc1`, the IC50 was > 25 µM (inactive).
In the case of `COC1=C(C2=C(OC)C(=O)c3cc4c(c(O)c3C2=O)C(=O)OC(C)C4)C(=O)c2c(cc3c(c2O)C(=O)OC(C)C3)C1=O` (stereo not given) it was 11.9 µM; in that of `Cc1ccc(NC(=O)Cc2nnc3cc(-c4nc(C)no4)ccn23)cc1`, > 25 µM (inactive); in that of `O=C1CC(c2ccc(F)cc2)CC2=C1C(c1cccc([N+](=O)[O-])c1)Nc1ccccc1N2` (stereo not given), > 25 µM (inactive).
In the case of `Cc1ccc(N2CC(c3nc4ccccc4n3CCOc3cccc(C)c3)CC2=O)cc1` (stereo not given) it was > 25 µM (inactive); in that of `O=C(Nc1ccc2c(c1)OCO2)c1cncc(NS(=O)(=O)c2ccccc2)c1`, > 25 µM (inactive).
In the case of `COc1c2nc3ccccc3oc-2cc(=O)c1OC` it was > 25 µM (inactive); in that of `CCOc1ccc(C2/C(=C(\O)c3ccccc3)C(=O)C(=O)N2c2nc3ccc(F)cc3s2)cc1` (stereo not given), > 25 µM (inactive); in that of `Cc1ccc2c(c1)c(=O)c(C(=O)c1ccccc1)cn2CC(=O)Nc1ccc2c(c1)OCO2`, > 25 µM (inactive).
As for `Cc1ccc(C(=O)c2cn(CC(=O)Nc3ccc4c(c3)OCO4)c3ccccc3c2=O)cc1`, the IC50 was > 25 µM (inactive).
In the case of `Cc1ccc(C2CN3C(=O)CN(C4CC4)C(=O)[C@]3(C)c3[nH]c4ccccc4c32)cc1` (stereo not given in full) it was > 25 µM (inactive); in that of `O=C1CC2(C(=O)N(Cc3ccc(Cl)cc3)c3ccccc32)c2cn[nH]c2N1` (stereo not given), > 25 µM (inactive); in that of `CC(c1ccccc1)N1CC(O)=C(c2nc3ccccc3s2)C1=N` (stereo not given), > 25 µM (inactive).
In the case of `O=[N+]([O-])c1ccc(C(O)CN2CCN(Cc3ccccc3)CC2)cc1` (stereo not given) it was > 25 µM (inactive); in that of `COc1cc(Cl)c(NC(=O)c2cc(-c3ccccn3)n[nH]2)c(OC)c1`, > 25 µM (inactive); in that of `Fc1ccc(Nc2nc(CN3CCOCC3)nc3sc4c(c23)CCC4)cc1Cl`, > 25 µM (inactive).
In the case of `COC(=O)c1ccc2c(=O)n(CCCCCC(=O)NCCc3ccc(S(N)(=O)=O)cc3)c(=O)[nH]c2c1` it was > 25 µM (inactive); in that of `COc1ccc(OC)c(C2=NO[C@]3(C(=O)Nc4ccccc43)[C@H]2C(=O)c2ccc(OC)c(OC)c2)c1`, > 25 µM (inactive).
On to `Cc1ccc2nc(CCc3ccc(NS(=O)(=O)c4ccc(F)c(Cl)c4)cc3)[nH]c2c1`, for which the IC50 was > 25 µM (inactive).
In the case of `N#Cc1cccc(C(=O)Nc2cccc(Oc3ccccc3)c2)c1`, the IC50 is > 25 µM (inactive).
